Source: US10287305B2, “Substituted piperidine compound and use thereof” (Takeda Pharmaceutical Company Limited, priority 2016, dated 2019)

Target: human orexin type 2 receptor (hOX2R) (Homo sapiens (Human), UniProt O43614)
Assay: Measurement of orexin type 2 receptor agonist activity (Experimental Example 2-1, FLIPR TETRA, intracellular Ca2+)
Format: cell-based
Settings: CHO dhfr- cells expressing hOX2R; for Emax at 30 µM: value at 30 uM concentration, orexin B as full agonist = 100%; for Emax: read-out: Emax (%)
[1] = agonist activity, 10 nM human orexin B = 100%

Chain of human orexin type 2 receptor (hOX2R) (O43614 whole entry): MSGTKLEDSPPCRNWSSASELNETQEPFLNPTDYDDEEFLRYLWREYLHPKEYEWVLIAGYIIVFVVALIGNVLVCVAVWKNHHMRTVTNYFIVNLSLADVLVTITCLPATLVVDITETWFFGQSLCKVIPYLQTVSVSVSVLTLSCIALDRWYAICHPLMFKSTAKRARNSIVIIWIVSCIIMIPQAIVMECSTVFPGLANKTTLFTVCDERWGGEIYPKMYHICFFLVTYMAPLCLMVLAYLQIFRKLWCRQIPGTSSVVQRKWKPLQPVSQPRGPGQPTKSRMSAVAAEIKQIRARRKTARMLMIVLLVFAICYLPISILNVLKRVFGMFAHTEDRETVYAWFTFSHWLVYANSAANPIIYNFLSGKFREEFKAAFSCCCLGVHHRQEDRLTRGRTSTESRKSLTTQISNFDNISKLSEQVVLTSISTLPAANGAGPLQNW

Row | SMILES | EC50 [1] [nM] | Emax at 30 µM [%] | EC50 (FLIPR TETRA, Fluo-4AM) [nM] | Emax (FLIPR TETRA, Fluo-4AM) [%] | Emax (%) (FLIPR TETRA, Fluo-4AM)
1 | CS(=O)(=O)N[C@H]1CCCN(C(=O)C2CC2)[C@H]1CO[C@H]1CC[C@@H](c2ccccc2F)CC1 [Example 268, N-((2R,3S)-1-(cyclopropylcarbonyl)-2-(((cis-4-(2-fluorophenyl)cyclohexyl)oxy)methyl)piperidin-3-yl)methanesulfonamide] | – | – | 1.5 | 103 | –
2 | COC(=O)N1CCC[C@H](NS(C)(=O)=O)[C@@H]1CO[C@H]1CC[C@@H](c2ccccc2C(F)F)CC1 [Example 324, methyl (2R,3S)-2-(((cis-4-(2-(difluoromethyl)phenyl)cyclohexyl)-oxy)methyl)-3-((methylsulfonyl)amino)piperidine-1-carboxylate] | – | – | – | – | 95
3 | CS(=O)(=O)N[C@H]1CCCN(C(=O)C2CC2)[C@H]1COC1CCN(c2ncccn2)CC1(F)F (relative stereo) [Example 211, N-(cis-1-(cyclopropylcarbonyl)-2-(((3,3-difluoro-1-(pyrimidin-2-yl)piperidin-4-yl)oxy)methyl)piperidin-3-yl)methanesulfonamide] | – | – | 1100 | 94 | –
4 | COC(=O)N1CCC[C@H](NS(C)(=O)=O)[C@@H]1CO[C@H]1CC[C@@H](c2cc(F)cc(F)c2)CC1 [Example 241, methyl (2R,3S)-2-(((cis-4-(3,5-difluorophenyl)cyclohexyl)oxy)methyl)-3-((methylsulfonyl)amino)piperidine-1-carboxylate] | – | – | 1.2 | 97 | –
5 | CS(=O)(=O)N[C@H]1CCCN(C(=O)C2CC2)[C@H]1CO[C@H]1CC[C@@H](c2c(F)cccc2F)CC1 [Example 213, N-((2R,3S)-1-(cyclopropylcarbonyl)-2-(((cis-4-(2,6-difluorophenyl)cyclohexyl)oxy)methyl)piperidin-3-yl)methanesulfonamide] | – | – | 0.44 | 102 | –
6 | CS(=O)(=O)N[C@H]1CCCN(C(=O)[C@@H]2CCOC2)[C@H]1CO[C@H]1CC[C@@H](c2ccccc2)CC1 [Example 150, N-(cis-2-(((cis-4-phenylcyclohexyl)oxy)methyl)-1-((3R)-tetrahydrofuran-3-ylcarbonyl)piperidin-3-yl)methanesulfonamide] | – | – | 30 | 99 | –
7 | CS(=O)(=O)N[C@H]1CCCN(C(=O)C2CCC2)[C@H]1COC1CCN(c2ccccc2F)CC1 (relative stereo) [Example 223, N-(cis-1-(cyclobutylcarbonyl)-2-(((1-(2-fluorophenyl)piperidin-4-yl)oxy)methyl)piperidin-3-yl)methanesulfonamide] | – | – | 1100 | 110 | –

Continued, values first:

Row | EC50 [1] [nM] | Emax at 30 µM [%] | EC50 (FLIPR TETRA, Fluo-4AM) [nM] | Emax (FLIPR TETRA, Fluo-4AM) [%] | Emax (%) (FLIPR TETRA, Fluo-4AM) | SMILES
8 | 1100 | 93 | – | – | – | CC(C)[C@H]1CC[C@@H](OC[C@H]2[C@@H](NS(C)(=O)=O)CCCN2C(=O)Oc2ccccc2)CC1 (relative stereo) [Example 43, phenyl cis-2-(((cis-4-isopropylcyclohexyl)oxy)methyl)-3-((methylsulfonyl)amino)piperidine-1-carboxylate]
9 | – | – | 390 | 120 | – | CCNC(=O)N1CCC[C@H](NS(C)(=O)=O)[C@@H]1COC1CCN(c2ccccc2)CC1 (relative stereo) [Example 123, cis-N-ethyl-3-((methylsulfonyl)amino)-2-(((1-phenylpiperidin-4-yl)oxy)methyl)piperidine-1-carboxamide]
10 | 140 | 97 | – | – | – | COC(=O)CCC(=O)N1CCC[C@H](NS(C)(=O)=O)[C@@H]1CO[C@H]1CC[C@@H](C(C)C)CC1 (relative stereo) [Example 55, methyl 4-(cis-2-(((cis-4-isopropylcyclohexyl)oxy)methyl)-3-((methylsulfonyl)amino)piperidin-1-yl)-4-oxobutanoate]
11 | – | – | 650 | 104 | – | COc1cccc([C@H]2CC[C@@H](OC[C@H]3[C@@H](NS(C)(=O)=O)CCCN3C(C)=O)CC2)c1 (relative stereo) [Example 271, N-(cis-1-acetyl-2-(((cis-4-(3-methoxyphenyl)cyclohexyl)oxy)methyl)piperidin-3-yl)methanesulfonamide]
